Experimental data: US11649241B2, “Pyrazolochlorophenyl compounds, compositions and methods of use thereof” (Genentech, Inc., priority 2017, dated 2023)
pIC50, pKi: −log10 of the molar value.

Experiments:
[1] = biological target: isolated recombinant JAK1 kinase domain (Homo sapiens (Human), UniProt P23458); experiment: JAK enzyme assay (Caliper LabChip peptide phosphorylation), JAK1; assay type: biochemical; details: 1.5 nM JAK1, ATP 25 μM, Morrison tight binding model
[2] = biological target: isolated recombinant JAK2 kinase domain (Homo sapiens (Human), UniProt O60674); experiment: JAK enzyme assay (Caliper LabChip peptide phosphorylation), JAK2; assay type: biochemical; details: 0.2 nM JAK2, ATP 25 μM, Morrison tight binding model
isolated recombinant JAK2 kinase domain, sequence (O60674 849-1124): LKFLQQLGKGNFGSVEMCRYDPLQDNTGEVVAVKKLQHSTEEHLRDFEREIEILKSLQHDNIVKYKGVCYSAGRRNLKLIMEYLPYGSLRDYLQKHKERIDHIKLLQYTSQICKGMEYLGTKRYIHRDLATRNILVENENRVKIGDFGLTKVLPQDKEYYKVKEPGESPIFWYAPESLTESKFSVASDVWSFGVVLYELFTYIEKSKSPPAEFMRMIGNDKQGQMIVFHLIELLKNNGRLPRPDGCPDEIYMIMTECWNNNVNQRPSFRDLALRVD

[3] = system: JAK1-dependent STAT6 phosphorylation downstream of IL-13 stimulation (TF-1 / BEAS-2B cells); experiment: JAK1 pathway assay in cell lines (IL-13-stimulated pSTAT6, MSD); assay type: cell-based; details: Homo sapiens, inhibition of STAT6 phosphorylation, cell line (TF-1 or BEAS-2B) not specified
Procedure: JAK1 Pathway Assay in Cell Lines was Carried Out as Follows:
Inhibitor potency (EC50) was determined in cell-based assays designed to measure JAK1 dependent STAT phosphorylation. As noted above, inhibition of IL-4, IL-13, and IL-9 signalling by blocking the Jak/Stat signaling pathway can alleviate asthmatic symptoms in pre-clinical lung inflammation models (Mathew et al., 2001, J Exp Med 193(9): 1087-1096; Kudlacz et. al., 2008, Eur J. Pharmacol 582(1-3): 154-161).
In one assay approach, TF-1 human erythroleukemia cells obtained from the American Type Culture Collection (ATCC; Manassas, Va.) were used to measure JAK1-dependent STAT6 phosphorylation downstream of IL-13 stimulation. Prior to use in the assays, TF-1 cells were starved of GM-CSF overnight in OptiMEM medium (Life Technologies, Grand Island, N.Y.) supplemented with 0.5% charcoal/dextran stripped fetal bovine serum (FBS), 0.1 mM non-essential amino acids (NEAA), and 1 mM sodium pyruvate. The assays were run in 384-well plates in serum-free OptiMEM medium using 300,000 cells per well. In a second assay approach, BEAS-2B human bronchial epithelial cells obtained from ATCC were plated at 100,000 cells per well of a 96-well plate one day prior to the experiment. The BEAS-2B assay was run in complete growth medium (bronchial epithelial basal medium plus bulletkit; Lonza; Basel, Switzerland).
Test compounds were serially diluted 1:2 in DMSO and then diluted 1:50 in medium just before use. Diluted compounds were added to the cells, for a final DMSO concentration of 0.2%, and incubated for 30 min (for the TF-1 assay) or 1 hr (for the BEAS-2B assay) at 37° C. Then, cells were stimulated with human recombinant cytokine at their respective EC90 concentrations, as previously determined for each individual lot. Cells were stimulated with IL-13 (R&D Systems, Minneapolis, Minn.) for 15 min at 37° C. The TF-1 cell reactions were stopped by the direct addition of 10× lysis buffer (Cell Signaling Technologies, Danvers, Mass.), whereas the BEAS-2B cell incubations were halted by the removal of medium and addition of 1× lysis buffer. The resultant samples were frozen in the plates at −80° C. Compound mediated inhibition of STAT6 phosphorylation was measured in the cell lysates using MesoScale Discovery (MSD) technology (Gaithersburg, Md.). EC50 values were determined as the concentration of compound required for 50% inhibition of STAT phosphorylation relative to that measured for the DMSO control.

isolated recombinant JAK1 kinase domain, sequence (P23458 875-1153): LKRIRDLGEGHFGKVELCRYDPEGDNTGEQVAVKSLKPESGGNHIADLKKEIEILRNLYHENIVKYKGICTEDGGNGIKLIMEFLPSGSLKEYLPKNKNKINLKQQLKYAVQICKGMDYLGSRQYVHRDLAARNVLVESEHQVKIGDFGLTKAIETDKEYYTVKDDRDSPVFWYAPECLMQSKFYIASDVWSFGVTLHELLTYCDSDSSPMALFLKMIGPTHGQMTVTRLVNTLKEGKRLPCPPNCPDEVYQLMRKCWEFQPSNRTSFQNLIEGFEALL

Compound	pKi [1]	pKi [2]	pIC50 [3]
O=C(Nc1c[nH]nc1-c1cc(Cl)ccc1OC(F)F)c1cncc2cn[nH]c12 [Example 6, N-(3-(5-chloro-2-(difluoromethoxy)phenyl)-1H-pyrazol-4-yl)-1H-pyrazolo[4,3-c]pyridine-7-carboxamide]	8.13	9.32	–
Nc1nn2cccnc2c1C(=O)Nc1c[nH]nc1-c1cc(Cl)ccc1OC(F)F [Example 9, 2-amino-N-(3-(5-chloro-2-(difluoromethoxy)phenyl)-1H-pyrazol-4-yl)pyrazolo[1,5-a]pyrimidine-3-carboxamide]	9.31	9.77	8.10
O=C(Nc1c[nH]nc1-c1cc(Cl)ccc1OC(F)F)c1snc2cccnc12 [Example 7, N-(3-(5-chloro-2-(difluoromethoxy)phenyl)-1H-pyrazol-4-yl)isothiazolo[4,3-b]pyridine-3-carboxamide]	9.27	9.22	7.69
COc1ccn2ncc(C(=O)Nc3c[nH]nc3-c3cc(Cl)ccc3OC(F)F)c2n1 [Example 14, N-(3-(5-chloro-2-(difluoromethoxy)phenyl)-1H-pyrazol-4-yl)-5-methoxypyrazolo[1,5-a]pyrimidine-3-carboxamide]	9.74	10.40	8.42
COc1ccc(Cl)cc1-c1n[nH]cc1NC(=O)c1cncc2scnc12 [Example 3, N-(3-(5-Chloro-2-methoxyphenyl)-1H-pyrazol-4-yl)thiazolo[5,4-c]pyridine-7-carboxamide]	8.18	9.02	–
O=C(Nc1c[nH]nc1-c1cc(Cl)ccc1OC(F)F)c1cncc2[nH]cnc12 [Example 15, N-(3-(5-chloro-2-(difluoromethoxy)phenyl)-1H-pyrazol-4-yl)-3H-imidazo[4,5-c]pyridine-7-carboxamide]	8.25	8.59	–
Nc1nc2c(C(=O)Nc3c[nH]nc3-c3cc(Cl)ccc3OC(F)F)cncc2s1 [Example 5, 2-amino-N-(3-(5-chloro-2-(difluoromethoxy)phenyl)-1H-pyrazol-4-yl)thiazolo[5,4-c]pyridine-7-carboxamide]	9.01	10.22	–
O=C(Nc1c[nH]nc1-c1cc(Cl)ccc1OC(F)F)c1cncc2ccoc12 [Example 10, N-(3-(5-chloro-2-(difluoromethoxy)phenyl)-1H-pyrazol-4-yl)furo[3,2-c]pyridine-7-carboxamide]	9.07	9.48	7.30
O=C(Nc1c[nH]nc1-c1cc(Cl)ccc1OC(F)F)c1cnn2cc(F)cnc12 [Example 12, N-(3-(5-chloro-2-(difluoromethoxy)phenyl)-1H-pyrazol-4-yl)-6-fluoropyrazolo[1,5-a]pyrimidine-3-carboxamide]	9.39	10.05	7.77
Cc1ccn2ncc(C(=O)Nc3c[nH]nc3-c3cc(Cl)ccc3OC(F)F)c2n1 [Example 13, N-(3-(5-chloro-2-(difluoromethoxy)phenyl)-1H-pyrazol-4-yl)-5-methylpyrazolo[1,5-a]pyrimidine-3-carboxamide]	8.64	9.39	7.38
COc1ccc(Cl)cc1-c1nn(C)cc1NC(=O)c1cncc2cn[nH]c12 [Example 2, N-(3-(5-Chloro-2-methoxyphenyl)-1-methyl-1H-pyrazol-4-yl)-1H-pyrazolo[4,3-c]pyridine-7-carboxamide]	8.87	9.46	7.44
COc1ccc(Cl)cc1-c1nn(C)cc1NC(=O)c1cncc2cn(C)nc12 [Example 1, N-(3-(5-Chloro-2-methoxyphenyl)-1-methyl-1H-pyrazol-4-yl)-2-methyl-2H-pyrazolo[4,3-c]pyridine-7-carboxamide]	8.44	8.44	7.03
O=C(Nc1c[nH]nc1-c1cc(Cl)ccc1OC(F)F)c1cnc2[nH]ccc2n1 [Example 8, N-(3-(5-chloro-2-(difluoromethoxy)phenyl)-1H-pyrazol-4-yl)-5H-pyrrolo[3,2-b]pyrazine-2-carboxamide]	9.24	9.47	–
O=C(Nc1c[nH]nc1-c1cc(Cl)ccc1OC(F)F)c1cncc2scnc12 [Example 4, N-(3-(5-chloro-2-(difluoromethoxy)phenyl)-1H-pyrazol-4-yl)thiazolo[5,4-c]pyridine-7-carboxamide]	8.02	8.69	–
O=C(Nc1c[nH]nc1-c1cc(Cl)ccc1OC(F)F)c1coc2cccnc12 [Example 11, N-(3-(5-chloro-2-(difluoromethoxy)phenyl)-1H-pyrazol-4-yl)furo[3,2-b]pyridine-3-carboxamide]	9.25	9.31	7.76
